Read-outs that look alike come from different tables or passages of the source.
Columns and labels:
E. faecium ATCC 27270 [1] = assay type: cell-based, Enterococcus faecium
Description: (§1) The synergy of the UTBLPs with various antibiotics was assessed using checkerboard assay as previously described. Briefly, the combination of antibiotic and OMP at varying concentrations were incubated with bacterial inoculum (5 × 10^5 CFU/mL final concentration) at 37 °C for 18 h. Growth in the form of turbidity was confirmed using an EMax Plus microplate reader (Molecular Devices, Union City, CA, USA) at 590 nm. Fractional inhibitory concentration index (FICI) was used to evaluate the interaction between the antibiotic and the OMP. FICI is the sum of the FIC of the antibiotic and the FIC of the OMP. The FIC value is calculated by dividing the MIC of the agents in combination by the MIC of the agent alone. FICI ≤ 0.5 is synergistic, 0.5 < x ≤ 4 is additive, and >4 is antagonistic.

K. pneumoniae 113250 [2] = experiment: microbe, parasite or virus in culture; assay type: cell-based, Klebsiella pneumoniae; settings: 113250, 18 h
Description: (§2) The in vitro antibacterial activity of the UTBLPs was assessed against wild-type and clinically isolated bacterial strains. To obtain the MIC of the compounds, the microbroth dilution susceptibility assay was performed according to the Clinical and Laboratory Standards Institute (CLSI, Wayne, PA, USA) guidelines and as previously described. Briefly, the compounds at varying concentrations were incubated with bacterial inoculum (5 × 10^5 CFU/mL final concentration) at 37 °C for 18 h. Growth in the form of turbidity was confirmed using an EMax Plus microplate reader (Molecular Devices, San Jose, CA, USA) at 590 nm.

S. aureus ATCC 29213 = assay type: cell-based, Staphylococcus aureus
Description: as §1

MRSA ATCC 33592 = assay type: cell-based, Staphylococcus aureus
Description: as §1

A. baumannii 92247 = assay type: cell-based, Acinetobacter baumannii; settings: for MICUTBLP: UTBLP alone
Description: as §1

A. baumannii AB027 = assay type: cell-based, Acinetobacter baumannii; settings: for MICUTBLP: UTBLP alone
Description: as §1

A. baumannii ATCC 17978 = assay type: cell-based, Acinetobacter baumannii; settings: for MICUTBLP: UTBLP alone
Description: as §1

E. coli ATCC 25922 = assay type: cell-based, Escherichia coli; settings: for MICUTBLP: UTBLP alone
In short: (§3)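 Values derive from a two-agent checkerboard with an 18 h, 37 °C incubation. FICI cut-offs: ≤0.5 synergy, 0.5–4 additive, >4 antagonism.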

E. coli 94393 = assay type: cell-based, Escherichia coli; settings: for MICUTBLP: UTBLP alone
In short: as §3

E. cloacae 118564 = experiment: microbe, parasite or virus in culture; assay type: cell-based, Enterobacter cloacae; settings: 118564, 18 h
Description: as §2

K. pneumoniae 113250 [3] = assay type: cell-based, Klebsiella pneumoniae; settings: for MICUTBLP: UTBLP alone
Description: as §1

E. faecium ATCC 27270 [4] = assay type: cell-based, Enterococcus faecium; settings: ATCC 27270, 18 h
Description: as §2

[5] = UTBLP alone, plate with chloramphenicol
[6] = UTBLP in combination with chloramphenicol
[7] = chloramphenicol in combination with the UTBLP
[8] = UTBLP in combination with novobiocin
[9] = UTBLP in combination with rifampicin
[10] = novobiocin in combination with the UTBLP
[11] = rifampicin in combination with the UTBLP
[12] = UTBLP in combination with niclosamide
[13] = niclosamide in combination with the UTBLP

MICUTBLP (E. faecium ATCC 27270 [1]; [5]): > 128 µg/mL | MICUTBLP [MICcombo] (E. faecium ATCC 27270 [1]; [6]): 0.25 µg/mL | MICchloramphenicol [MICcombo] (E. faecium ATCC 27270 [1]; [7]): 8 µg/mL | MIC (K. pneumoniae 113250 [2]): > 128 µg/mL | MICUTBLP (S. aureus ATCC 29213; [5]): > 128 µg/mL | MICUTBLP [MICcombo] (S. aureus ATCC 29213; [6]): 0.25 µg/mL | MICchloramphenicol [MICcombo] (S. aureus ATCC 29213; [7]): 16 µg/mL | MICUTBLP (MRSA ATCC 33592; [5]): > 128 µg/mL | MICUTBLP [MICcombo] (MRSA ATCC 33592; [6]): 0.25 µg/mL | MICchloramphenicol [MICcombo] (MRSA ATCC 33592; [7]): 64 µg/mL | MICUTBLP (A. baumannii 92247; plate with novobiocin): > 128 µg/mL | MICUTBLP (A. baumannii 92247; plate with rifampicin): > 128 µg/mL | MICUTBLP [MICcombo] (A. baumannii 92247; [8]): 8 µg/mL | MICUTBLP [MICcombo] (A. baumannii 92247; [9]): 16 µg/mL | MICantibiotic [MICcombo] (A. baumannii 92247; [10]): 1 µg/mL | MICantibiotic [MICcombo] (A. baumannii 92247; [11]): 0.25 µg/mL | MICUTBLP (A. baumannii AB027; plate with novobiocin): > 128 µg/mL | MICUTBLP (A. baumannii AB027; plate with rifampicin): > 128 µg/mL | MICUTBLP [MICcombo] (A. baumannii AB027; [8]): 16 µg/mL | MICUTBLP [MICcombo] (A. baumannii AB027; [9]): 4 µg/mL | MICantibiotic [MICcombo] (A. baumannii AB027; [10]): 2 µg/mL | MICantibiotic [MICcombo] (A. baumannii AB027; [11]): 0.5 µg/mL | MICUTBLP (A. baumannii ATCC 17978; plate with chloramphenicol): > 128 µg/mL | MICUTBLP (A. baumannii ATCC 17978; plate with niclosamide): > 128 µg/mL | MICUTBLP (A. baumannii ATCC 17978; plate with novobiocin): > 128 µg/mL | MICUTBLP (A. baumannii ATCC 17978; plate with rifampicin): > 128 µg/mL | MICUTBLP [MICcombo] (A. baumannii ATCC 17978; [6]): 16 µg/mL | MICUTBLP [MICcombo] (A. baumannii ATCC 17978; [12]): 0.25 µg/mL | MICUTBLP [MICcombo] (A. baumannii ATCC 17978; [8]): 8 µg/mL | MICUTBLP [MICcombo] (A. baumannii ATCC 17978; [9]): 8 µg/mL | MICantibiotic [MICcombo] (A. baumannii ATCC 17978; [7]): 64 µg/mL | MICantibiotic [MICcombo] (A. baumannii ATCC 17978; [13]): 1024 µg/mL | MICantibiotic [MICcombo] (A. baumannii ATCC 17978; [10]): 1 µg/mL | MICantibiotic [MICcombo] (A. baumannii ATCC 17978; [11]): 0.5 µg/mL | MICUTBLP (E. coli ATCC 25922; plate with chloramphenicol): > 128 µg/mL | MICUTBLP (E. coli ATCC 25922; plate with niclosamide): > 128 µg/mL | MICUTBLP (E. coli ATCC 25922; plate with novobiocin): > 128 µg/mL | MICUTBLP (E. coli ATCC 25922; plate with rifampicin): > 128 µg/mL | MICUTBLP [MICcombo] (E. coli ATCC 25922; [6]): 0.5 µg/mL | MICUTBLP [MICcombo] (E. coli ATCC 25922; [12]): 16 µg/mL | MICUTBLP [MICcombo] (E. coli ATCC 25922; [8]): 16 µg/mL | MICUTBLP [MICcombo] (E. coli ATCC 25922; [9]): 16 µg/mL | MICantibiotic [MICcombo] (E. coli ATCC 25922; [7]): 2 µg/mL | MICantibiotic [MICcombo] (E. coli ATCC 25922; [13]): 8 µg/mL | MICantibiotic [MICcombo] (E. coli ATCC 25922; [10]): 4 µg/mL | MICantibiotic [MICcombo] (E. coli ATCC 25922; [11]): 1 µg/mL | MICUTBLP (E. coli 94393; plate with novobiocin): > 128 µg/mL | MICUTBLP (E. coli 94393; plate with rifampicin): > 128 µg/mL | MICUTBLP [MICcombo] (E. coli 94393; [8]): 16 µg/mL | MICUTBLP [MICcombo] (E. coli 94393; [9]): 16 µg/mL | MICantibiotic [MICcombo] (E. coli 94393; [10]): 8 µg/mL | MICantibiotic [MICcombo] (E. coli 94393; [11]): 1 µg/mL | MIC (E. cloacae 118564): > 128 µg/mL | MICUTBLP (K. pneumoniae 113250 [3]; plate with novobiocin): > 128 µg/mL | MICUTBLP (K. pneumoniae 113250 [3]; plate with rifampicin): > 128 µg/mL | MICUTBLP [MICcombo] (K. pneumoniae 113250 [3]; [8]): 16 µg/mL | MICUTBLP [MICcombo] (K. pneumoniae 113250 [3]; [9]): 16 µg/mL | MICantibiotic [MICcombo] (K. pneumoniae 113250 [3]; [10]): 32 µg/mL | MICantibiotic [MICcombo] (K. pneumoniae 113250 [3]; [11]): 4 µg/mL | MIC (E. faecium ATCC 27270 [4]): >128 µg/mL
SMILES: CCCCCCCC(=O)N[C@@H](CCCCN(C)C)C(=O)NCCCN(CCCNC(=O)[C@H](CCCCN(C)C)NC(=O)CCCCCCC)CC(=O)N[C@@H](CCCCN(C)C)C(N)=O [UTBLP 3]
Interpretation (E. faecium ATCC 27270 [1]; UTBLP + chloramphenicol): Additive (0.5 < x ≤ 4 is additive) | Interpretation (MRSA ATCC 33592; UTBLP + chloramphenicol): Additive (0.5 < x ≤ 4 is additive) | Interpretation (A. baumannii 92247; UTBLP + novobiocin): Synergy (FICI ≤ 0.5 is synergistic) | Interpretation (A. baumannii 92247; UTBLP + rifampicin): Synergy (FICI ≤ 0.5 is synergistic) | Interpretation (A. baumannii AB027; UTBLP + novobiocin): Synergy (FICI ≤ 0.5 is synergistic) | Interpretation (A. baumannii AB027; UTBLP + rifampicin): Additive (0.5 < x ≤ 4 is additive) | Interpretation (A. baumannii ATCC 17978; UTBLP + chloramphenicol): Additive (0.5 < x ≤ 4 is additive) | Interpretation (A. baumannii ATCC 17978; UTBLP + niclosamide): Additive (0.5 < x ≤ 4 is additive) | Interpretation (A. baumannii ATCC 17978; UTBLP + novobiocin): Synergy (FICI ≤ 0.5 is synergistic) | Interpretation (A. baumannii ATCC 17978; UTBLP + rifampicin): Synergy (FICI ≤ 0.5 is synergistic) | Interpretation (E. coli ATCC 25922; UTBLP + chloramphenicol): Additive (0.5 < x ≤ 4 is additive) | Interpretation (E. coli ATCC 25922; UTBLP + niclosamide): Synergy (FICI ≤ 0.5 is synergistic) | Interpretation (E. coli ATCC 25922; UTBLP + novobiocin): Synergy (FICI ≤ 0.5 is synergistic) | Interpretation (E. coli ATCC 25922; UTBLP + rifampicin): Synergy (FICI ≤ 0.5 is synergistic) | Interpretation (E. coli 94393; UTBLP + novobiocin): Synergy (FICI ≤ 0.5 is synergistic) | Interpretation (E. coli 94393; UTBLP + rifampicin): Synergy (FICI ≤ 0.5 is synergistic) | Interpretation (K. pneumoniae 113250 [3]; UTBLP + novobiocin): Synergy (FICI ≤ 0.5 is synergistic) | Interpretation (K. pneumoniae 113250 [3]; UTBLP + rifampicin): Synergy (FICI ≤ 0.5 is synergistic)

Source: PMC8963254, “Effects of Lysine N-ζ-Methylation in Ultrashort Tetrabasic Lipopeptides (UTBLPs) on the Potentiation of Rifampicin, Novobiocin, and Niclosamide in Gram-Negative Bacteria” (Antibiotics, 2022)
